Measured values from patent publication US20120270819A1, “USE OF COMPOUNDS WITH SGLT-1/SGLT-2 INHIBITOR ACTIVITY FOR PRODUCING MEDICAMENTS FOR TREATMENT OF BONE DISEASE” (SANOFI, priority 2009, published 2012).

System: female Sprague-Dawley mature and young adult rats
Assay: Biomechanical testing: right femur 3-point bending
Type: in vivo, rat
Settings: ex vivo; for Femur 3-point bending AUC / Femur 3-point bending Modulus / Femur 3-point bending Peak Load / Femur 3-point bending Stiffness / Femur 3-point bending Toughness / Femur 3-point bending Ultimate Stress: mean
Method: Biomechanical testing was performed using an 858 Mini Bionix Servohydraulic Test System, Model 242.03. All data was collected using TestWorks® version 3.8A for TestStar™ software, version 4.0C.
At necropsy, all specimens were cleaned of excess tissue (not scraped) and individually wrapped in gauze soaked with saline, covered with plastic film and placed in an appropriately labelled plastic bag. Bone samples were retained frozen (ca −20° C.) until subjected to the following biomechanical evaluations:
For 3-point bending, the right femur was cleaned of soft tissue, especially at the diaphysis in the area of the span.
The right femur was tested to failure in three-point bending to determine the material properties of femoral cortical bone. The marked point on the anterior side served as the upper loading point for each femur and the actuator was set at a rate of 1 mm/sec until failure occurred. Load and displacement data were collected. Peak load was determined from the resulting load versus displacement curve and converted to ultimate stress using the radius, cross-sectional moment of inertia and the span. The work to failure was determined from the area under the curve (AUC) and toughness was calculated. Approximate midspan values for stiffness were recorded (defined as the slope of the linear/elastic region of the load versus displacement curve) and modulus was calculated using the moment of inertia obtained from the pQCT data.

## COc1ccc(Cc2c(OC3OC(CO)C(F)C(O)C3O)n[nH]c2C(F)(F)F)cc1 (stereo not drawn) [Example 5 of formula II]
Mature Adults, 10 mg/kg/day
  Femur 3-point bending AUC, percent difference from Vehicle Control: 13.4%
  Femur 3-point bending Modulus, percent difference from Vehicle Control: −0.2%
  Femur 3-point bending Peak Load, percent difference from Vehicle Control: 10.1%
  Femur 3-point bending Stiffness, percent difference from Vehicle Control: 1.3%
  Femur 3-point bending Toughness, percent difference from Vehicle Control: 10.5%
  Femur 3-point bending Ultimate Stress, percent difference from Vehicle Control: 6.1%
  Femur 3-point bending AUC: 64.1 N-mm
  Femur 3-point bending Modulus: 6137.7 MPa
  Femur 3-point bending Peak Load: 149.8 N
  Femur 3-point bending Stiffness: 410.2 N/mm
  Femur 3-point bending Toughness: 7.8 MPa
  Femur 3-point bending Ultimate Stress: 200.5 MPa
Mature Adults, 50 mg/kg/day
  Femur 3-point bending AUC, percent difference from Vehicle Control: 8.7%
  Femur 3-point bending Modulus, percent difference from Vehicle Control: 1.2%
  Femur 3-point bending Peak Load, percent difference from Vehicle Control: 4.5%
  Femur 3-point bending Stiffness, percent difference from Vehicle Control: −0.9%
  Femur 3-point bending Toughness, percent difference from Vehicle Control: 6.6%
  Femur 3-point bending Ultimate Stress, percent difference from Vehicle Control: 3.4%
  Femur 3-point bending AUC: 61.4 N-mm
  Femur 3-point bending Modulus: 6222.5 MPa
  Femur 3-point bending Peak Load: 142.1 N
  Femur 3-point bending Stiffness: 401.4 N/mm
  Femur 3-point bending Toughness: 7.5 MPa
  Femur 3-point bending Ultimate Stress: 195.4 MPa
Young Adults, 10 mg/kg/day
  Femur 3-point bending AUC, percent difference from Vehicle Control: 4.1%
  Femur 3-point bending Modulus, percent difference from Vehicle Control: 2.1%
  Femur 3-point bending Peak Load, percent difference from Vehicle Control: 0.9%
  Femur 3-point bending Stiffness, percent difference from Vehicle Control: −0.4%
  Femur 3-point bending Toughness, percent difference from Vehicle Control: 2.5%
  Femur 3-point bending Ultimate Stress, percent difference from Vehicle Control: 1.3%
  Femur 3-point bending AUC: 63.7 N-mm
  Femur 3-point bending Modulus: 5154.1 MPa
  Femur 3-point bending Peak Load: 97.9 N
  Femur 3-point bending Stiffness: 277.3 N/mm
  Femur 3-point bending Toughness: 8.7 MPa
  Femur 3-point bending Ultimate Stress: 155.8 MPa
Young Adults, 50 mg/kg/day
  Femur 3-point bending AUC, percent difference from Vehicle Control: −19.9%
  Femur 3-point bending Modulus, percent difference from Vehicle Control: 4.0%
  Femur 3-point bending Peak Load, percent difference from Vehicle Control: −3.0%
  Femur 3-point bending Stiffness, percent difference from Vehicle Control: 2.0%
  Femur 3-point bending Toughness, percent difference from Vehicle Control: −19.2%
  Femur 3-point bending Ultimate Stress, percent difference from Vehicle Control: −2.3%
  Femur 3-point bending AUC: 49.0 N-mm
  Femur 3-point bending Modulus: 5249.6 MPa
  Femur 3-point bending Peak Load: 94.1 N
  Femur 3-point bending Stiffness: 283.9 N/mm
  Femur 3-point bending Toughness: 6.8 MPa
  Femur 3-point bending Ultimate Stress: 150.2 MPa
